Active and inactive are the calls of the source. The calls are words filed in the database; no cut-off is given here.

For data set [1], the system named is Leishmania donovani. Put plainly: Antileishmanial activity against Leishmania donovani HOM/IN/80/Dd8 amastigotes infected in Mesocricetus auratus at 10 mg/kg, ip administered daily for 5 days measured after 7 days. It is filed as functional. Particulars: for inhibition in vivo at 10 mg/kg: HOM/IN/80/Dd8, in Mesocricetus auratus, route intraperitoneal.
Data set [2] has as its system Leishmania donovani. The data set can be described thus: Antileishmanial activity against Leishmania donovani HOM/IN/80/Dd8 amastigotes infected in Mesocricetus auratus assessed as survival days at 10 mg/kg, ip administered daily for 5 days. Format: functional.
The test system of data set [3] is Leishmania donovani. The data set can be described thus: Antileishmanial activity against Leishmania donovani HOM/IN/80/Dd8 amastigotes infected in Sigmodon hispidus peritoneal macrophages assessed as reduction in infected macrophages at 100 ug/ml. It is filed as functional.
In data set [4] the test system is Leishmania donovani. Put plainly: Antileishmanial activity against Leishmania donovani HOM/IN/80/Dd8 amastigotes assessed as minimum effective dose. Format: functional, organism-based.
Data set [5] has as its system Leishmania donovani. The data set can be described thus: Antileishmanial activity against Leishmania donovani HOM/IN/80/Dd8 amastigotes infected in Sigmodon hispidus peritoneal macrophages assessed as reduction in average number of amastigotes per infected macrophage at 100 ug/ml. Format: functional.
The test system of data set [6] is Leishmania donovani. Put plainly: Antileishmanial activity against Leishmania donovani HOM/IN/80/Dd8 amastigotes infected in Sigmodon hispidus peritoneal macrophages assessed as reduction in average number of amastigotes per infected macrophage at 30 ug/ml. Format: functional. Particulars: for inhibition at 30 µg/mL: HOM/IN/80/Dd8, in Sigmodon hispidus.
For data set [7], the system named is Leishmania donovani. Put plainly: Antileishmanial activity against Leishmania donovani HOM/IN/80/Dd8 amastigotes infected in Mesocricetus auratus at 10 mg/kg, ip administered daily for 5 days measured after 28 days. Format: functional.
The subject of data set [8] is Leishmania donovani. The data set can be described thus: Antileishmanial activity against Leishmania donovani HOM/IN/80/Dd8 amastigotes infected in Sigmodon hispidus peritoneal macrophages assessed as reduction in infected macrophages at 30 ug/ml. Format: functional. Particulars: for inhibition at 30 µg/mL: HOM/IN/80/Dd8, in Sigmodon hispidus.
A short description of data set [9]: Cytotoxicity against Sigmodon hispidus peritoneal macrophages at 60 ug/ml. Format: cell-based. Conditions: peritoneal macrophage cell.
The test system of data set [10] is Leishmania donovani. The data set can be described thus: Antileishmanial activity against Leishmania donovani HOM/IN/80/Dd8 amastigotes infected in Mesocricetus auratus at 100 mg/kg, po administered daily for 5 days. Conditions: HOM/IN/80/Dd8, in Mesocricetus auratus, 120 h. It is filed as functional.
Data set [11] concerns Leishmania donovani. Put plainly: Antileishmanial activity against Leishmania donovani HOM/IN/80/Dd8 amastigotes infected in Sigmodon hispidus peritoneal macrophages assessed as reduction in average number of amastigotes per infected macrophage at 60 ug/ml. It is filed as functional. Particulars: HOM/IN/80/Dd8, in Sigmodon hispidus.
Data set [12] deals with Leishmania donovani. The data set can be described thus: Antileishmanial activity against Leishmania donovani HOM/IN/80/Dd8 amastigotes infected in Sigmodon hispidus peritoneal macrophages assessed as reduction in infected macrophages at 60 ug/ml. Format: functional. Particulars: HOM/IN/80/Dd8, in Sigmodon hispidus.
Setting [13] is: HOM/IN/80/Dd8, in Sigmodon hispidus.

For sodium stibogluconate, the inhibition (commonly the relative decrease from the control value, in per cent) with Leishmania donovani [1] stood at 71.9%; with Leishmania donovani [3], 100%; in the data set with Leishmania donovani [5] it was 100%; with Leishmania donovani [6], 80%; with Leishmania donovani [7], 93.5%; with Leishmania donovani [8], 80%. For the same compound, in the data set on Leishmania donovani [2], the Survival was less than 30 days. In addition, in the data set on Leishmania donovani [4], the MED came to 10 mg/kg.
Regarding `COC(=O)C1=CO[C@@H](O[C@@H]2O[C@H](CO)[C@@H](O)[C@H](O)[C@H]2O)[C@@H]2[C@@H](C)[C@@H](O)[C@@H](O)[C@H]12`, in data set [9], the Activity result is on record as “Toxic”. At 10 mg/kg the inhibition in vivo with Leishmania donovani [1] was 30.8%. Moreover, in the data set on Leishmania donovani [2] (route intraperitoneal), the Survival is less than 28 days. Besides, the inhibition at 30 µg/mL in the data set with Leishmania donovani [6] stood at 65.8%; with Leishmania donovani [8], 42.2%.
`COC(=O)C1=CO[C@@H](O[C@@H]2O[C@H](CO)[C@@H](O)[C@H](O)[C@H]2O)[C@@H]2[C@@H](C)[C@@H](OC(=O)/C=C/c3ccc(OC)cc3)[C@@H](O)[C@H]12` [ARBORTRISTOSIDE A]: the inhibition in vivo – broadly, the drop in the measured response relative to a control, in per cent – at 10 mg/kg with Leishmania donovani [1] is 18.2%; in the data set with Leishmania donovani [7] (HOM/IN/80/Dd8, in Mesocricetus auratus, route intraperitoneal), 79.7%. Besides, in the data set with Leishmania donovani [2] (route intraperitoneal), the Survival is 38 days. This compound had an inhibition in vivo at 100 mg/kg in the data set on Leishmania donovani [10] of 57%. The inhibition at 100 µg/mL in the data set with Leishmania donovani [3] (setting [13]) was determined as 30.2%; in the data set with Leishmania donovani [5] (setting [13]), 64.6%. Moreover, the results for the inhibition at 30 µg/mL in the data set on Leishmania donovani [6] and in the data set with Leishmania donovani [8] were 45.8% and 7.13%, respectively.
For `COC(=O)C1=CO[C@@H](O[C@@H]2O[C@H](CO)[C@@H](O)[C@H](O)[C@H]2O)[C@@H]2[C@@H](CO)[C@@H](OC(=O)/C=C/c3ccc(O)c(O)c3)[C@@H](O)[C@H]12` [ARBORTRISTOSIDE B], the results for the inhibition at 60 µg/mL with Leishmania donovani [11] and in the data set with Leishmania donovani [12] were 47.3% and 41.7%, respectively. In addition, the inhibition entry in the data set with Leishmania donovani [1] and in the data set with Leishmania donovani [7] was “inactive” each time. Further, in the data set on Leishmania donovani [2] (route intraperitoneal), the Survival is 59 days. The inhibition at 30 µg/mL is 25.1% with Leishmania donovani [6] and 28.1% in the data set on Leishmania donovani [8].
For the compound `COC(=O)C1=CO[C@@H](O[C@@H]2O[C@H](CO)[C@@H](O)[C@H](O)[C@H]2O)[C@@H]2[C@@H](C)[C@@H](OC(=O)/C=C/c3ccc(O)cc3)[C@@H](O)[C@H]12` [ARBORTRISTOSIDE C], the Activity result in data set [9] is recorded as “Toxic”. In addition, the inhibition result with Leishmania donovani [1] was “inactive”. Besides, the Survival in the data set on Leishmania donovani [2] (route intraperitoneal) is less than 28 days. The inhibition at 30 µg/mL in the data set on Leishmania donovani [6] turned out to be 67.4%; in the data set on Leishmania donovani [8], 39.9%.

The values above are taken from ChEMBL document CHEMBL1158974, “Iridoids: a new class of leishmanicidal agents from Nyctanthes arbortristis” (J Nat Prod, 1991).
